# Results reported in EP0449699A2, “Pyrazole derivatives as angiotensin II-receptor antagonists, process for their preparation and pharmaceutical compositions containing them” (LABORATOIRES UPSA, priority 1990, dated 1991).
# Test system: récepteurs surrénaliens de l'angiotensine II
# Test: Displacement of radioligand [125I]-SIAII specifically bound to adrenal angiotensin II receptors (rat adrenal homogenate)
# Format: binding
# Conditions: 60 min, 25°C
# Source text: L'affinité des produits des exemples pour les récepteurs de l'angiotensine II est évaluée par technique de déplacement d'un radioligand spécifiquement fixé sur les récepteurs surrénaliens de l'angiotensine Il, chez le rat.
# Une aliquote d'un homogénat de surrénales de rat incube en présence d'une concentration unique de [^125I]-SIAII (Sar^1, Tyr^4, Ile^8 - angiotensine II), antagoniste des récepteurs de l'angiotensine II, et de deux concentrations d'agents compétiteurs (10^-5 M, 10-^7 M) durant 60 min à 25°C.
# La réaction est achevée par ajout de tampon, puis rapide filtration à travers des filtres de papier de verre. La liaison non spécifique est déterminée en présence d'angiotensine Il.
# Les résultats sont exprimés, pour les concentrations testées, en pourcentage de déplacement du radioligand spécifiquement fixé sur les récepteurs surrénaliens de l'angiotensine Il.
SMILES,"% de déplacement du ligand marqué (competitor 1E-5 M, 10 µM) [%]","% de déplacement du ligand marqué (competitor 1E-7 M, 0.1 µM) [%]"
"CCCc1nn(C)c(OCC(=O)OC)c1Cc1ccc(NC(=O)c2ccccc2C(=O)O)cc1 [Exemple 28, [Méthyl-1 n-propyl-3 ((carboxy-2 benzoyl amino)-4 benzyl)-4 pyrazol-yl-5] oxyacétatede méthyle]",82,34
"CCCc1nn(C)c(OCC(=O)OCC)c1Cc1ccc(NC(=O)c2c(Cl)ccc(Cl)c2C(=O)O)cc1 [Exemple 30, [Méthyl-1 n-propyl-3 ((carboxy-2 dichloro-3,6-benzoyl amino)-4 benzyl)-4 pyrazol-yl-5] oxyacétate d'éthyle]",96,63
"CCCc1nn(C)c(OCC(=O)OC)c1Cc1ccc(NC(=O)c2c(Cl)ccc(Cl)c2C(=O)O)cc1 [Exemple 31, [Méthyl-1 n-propyl-3 ((carboxy-2 dlchloro-3,6-benzoyl amino)-4 benzyl)-4 pyrazol-yl-5] oxyacétatede méthyle]",93,60
"CCCc1nn(CC(F)(F)F)c(OCC(=O)OC)c1Cc1ccc(NC(=O)c2ccccc2C(=O)O)cc1 [Exemple 33, [(trifluoro-2,2,2 éthyl)-1 n-propyl-3 ((carboxy-2 benzoyl amino)-4 benzyl)-4 pyrazol-yl-5] oxyacétatede méthyle]",94,26
"CCCc1nn(C)c(OCC(=O)O)c1Cc1ccc(NC(=O)c2ccccc2S(=O)(=O)O)cc1 [Exemple 35, Acide [Méthyl-1 n-propyl-3 [(sulfo-2 benzoyl amino)-4 benzyl]-4 pyrazol-yl-5] oxy acétique]",85,48
"CCCCc1nn(C)c(O)c1Cc1ccc(NC(=O)c2c(Cl)ccc(Cl)c2C(=O)O)cc1 [Exemple 40, Acide [(Méthyl-1 n-butyl-3 hydroxy-5 pyrazolyl-4]méthylphényl-yl-4] amino carbonyl-2 dichloro-3,6 benzoïque]",83,0
"CCCc1nn(CC(=O)OCC)c(O)c1Cc1ccc(NC(=O)c2c(Cl)ccc(Cl)c2C(=O)O)cc1 [Exemple 41, Acide [[éthoxy carbonyl méthyl-1 n-propyl-3 hydroxy-5 pyrazol-yl-4]méthylphényl-yl-4] amino carbonyl-2 dichloro-3,6 benzoïque]",85,2
"CCCc1nn(CC(=O)OCC)c(OCC(=O)OCC)c1Cc1ccc(NC(=O)c2c(Cl)ccc(Cl)c2C(=O)O)cc1 [Exemple 44, Acide [[(Ethoxy carbonyl méthyl)-1 n-propyl-3 (Ethoxy carbonyl méthyloxy)-5 pyrazol-yl-4]méthylphényl-yl-4] amino carbonyl-2 dlchloro-3,6-benzoïque]",96,9
"CCCc1nn(C)c(OCC(=O)OCC)c1Cc1ccc(NC(=O)c2ccccc2S(=O)(=O)O)cc1 [Exemple 45, Acide [[Méthyl-1 n-propyl-3 (Ethoxy carbonyl méthyloxy)-5 pyrazol-yl-4]méthylphényl-yl-4] amino carbonyl-2 benzène sulfonlque.]",92,60
"CCCc1nn(C)c(OC(=O)N(C)C)c1Cc1ccc(NC(=O)c2ccccc2S(=O)(=O)O)cc1 [Exemple 54, Acide [[Méthyl-1 n-propyl-3 (N,N-diméthyl carbamoyl)oxy-5 pyrazol-yl-4]méthylphényl-yl-4] aminocarbonyl-2 benzène sulfonique]",77,62
"CCCc1nn(C)c(OC(=O)N(CC)CC)c1Cc1ccc(NC(=O)c2ccccc2S(=O)(=O)O)cc1 [Exemple 57, Acide [[Méthyl-1 n-Propyl-3 (N,N-diéthyl carbamoyl)oxy-5 pyrazol-yl-4]méthylphényl-yl-4] amino carbonyl-2 benzène sulfonique]",80,60
"CCCc1nn(CC(F)(F)F)c(OC(=O)N(C)C)c1Cc1ccc(NC(=O)c2ccccc2S(=O)(=O)O)cc1 [Exemple 60, Acide [[(trifluoro-2,2,2 éthyl)-1 n-Propyl-3 (N,N-diméthyl carbamoyl)oxy-5 pyrazol-yl-4]méthylphényl-yl-4] amino carbonyl-2 benzène sulfonique]",84,49
"CCCCc1nn(CC(F)(F)F)c(OCC(=O)OCC)c1Cc1ccc(-c2ccccc2-c2nn[nH]n2)cc1 [Exemple 78, [(trifluoro-2,2,2éthyl)-1 n-Butyl-3 [(tétrazolyl-5)-2' biphényl-yl-4]méthyl-4 pyrazol-yl-5] oxy acétate d'éthyle]",73,58
"CCCCc1nn(CC(F)(F)F)c(OC(=O)N(C)C)c1Cc1ccc(-c2ccccc2-c2nn[nH]n2)cc1 [Exemple 80, (Trifluoro-2,2,2 éthyl)-1 n-Butyl-3 [(tétrazolyl-5)-2'biphényl-yl-4] méthyl-4 (N,N-diméthyl carbamoyl) oxy-5 pyrazole]",69,48
"CCCCc1nn(C)c(OC(=O)N(C)C)c1Cc1ccc(-c2ccccc2-c2nn[nH]n2)cc1 [Exemple 82, Méthyl-1 n-Butyl-3 [(tétrazolyl-5)-2' biphényl-yl-4] méthyl-4 (N,N-diméthyl carbamoyl) oxy-5 pyrazole]",71,47

# The remaining lines, values ahead:
"% de déplacement du ligand marqué (competitor 1E-5 M, 10 µM) [%]","% de déplacement du ligand marqué (competitor 1E-7 M, 0.1 µM) [%]",SMILES
92,39,"CCCCc1nn(C)c(OCC(=O)OCC)c1Cc1ccc(NC(=O)c2ccccc2C(=O)O)cc1 [Exemple 27, [Méthyl-1 n-butyl-3 ((carboxy-2 benzoyl amino)-4 benzyl)-4 pyrazol-yl-5] oxyacétate d'éthyle]"
80,40,"CCCc1nn(C)c(OCC(=O)OCC)c1Cc1ccc(NC(=O)c2ccccc2C(=O)O)cc1 [Exemple 29, [Méthyl-1 n-propyl-3 ((carboxy-2 benzoyl amino)-4 benzyl)-4 pyrazol-yl-5] oxyacétate d'éthyle]"
98,52,"CCCc1nn(CC(F)(F)F)c(OCC(=O)OC)c1Cc1ccc(NC(=O)c2c(Cl)ccc(Cl)c2C(=O)O)cc1 [Exemple 32, [(trifluoro-2,2,2 éthyl)-1 n-propyl-3 ((carboxy-2 dichloro-3,6-benzoyl amino)-4 benzyl)-4 pyrazol-yl-5] oxyacétatede méthyle]"
62,10,"CCCCc1nn(C)c(O)c1Cc1ccc(-c2ccccc2C(=O)O)cc1 [Exemple 36, Acide [Méthyl-1 n-butyl-3 hydroxy-5 pyrazol-yl-4] méthyl-4' biphényl-2 carboxylique]"
58,9,"CCCCc1nn(C)c(OCC(=O)O)c1Cc1ccc(-c2ccccc2C(=O)O)cc1 [Exemple 37, Acide [Méthyl-1 n-butyl-3 (carboxy-2' biphényl-yl-4)méthyl-4 pyrazol-yl-5] oxyacétique]"
80,58,"CCCCc1nn(C)c(OCC(=O)N2CCOCC2)c1Cc1ccc(NC(=O)c2ccccc2S(=O)(=O)O)cc1 [Exemple 48, N-[[Méthyl-1 n-butyl-3 [(sulfo-2 benzoyl amino)-4 benzyl]-4 pyrazol-yl-5]oxyacétyl] morpholine]"
83,60,"CCCCc1nn(C)c(OCCO)c1Cc1ccc(NC(=O)c2ccccc2S(=O)(=O)O)cc1 [Exemple 51, Acide [[Méthyl-1 n-butyl-3 (hydroxy-2 éthoxy)-5 pyrazol-yl-4]méthylphényl-yl-4] amino carbonyl-2 benzène sulfonique]"
91,64,"CCCc1nn(CC(F)(F)F)c(OCCO)c1Cc1ccc(NC(=O)c2ccccc2S(=O)(=O)O)cc1 [Exemple 63, Acide [[(trffiuoro-2,2,2 éthyl)-1 n-Propyl-3 (hydroxy-2 éthoxy)-5 pyrazol-yl-4]méthyl-4 phényl-yl-4] amino carbonyl-2 benzène sulfonique]"
92,63,"CCCc1nn(C)c(OCC(=O)N2CCN(c3ccccc3OC)CC2)c1Cc1ccc(NC(=O)c2ccccc2S(=O)(=O)O)cc1 [Exemple 66, (Méthoxy-2 phényl)-1 [[méthyl-1 n-propyl-3 [(sulfo-2 benzoyl amino)-4 benzyl]-4 pyrazol-yl-5]oxyacétyl]-4 pipérazine]"
67,49,"CCCc1nn(C)c(OCC(=O)OCC)c1Cc1ccc(-c2ccccc2-c2nnn[nH]2)cc1 [Exemple 70, [Méthyl-1 n-Propyl-3 [(tétrazolyl-5)-2' biphényl-yl-4]méthyl-4 pyrazol-yl-5] oxy acétate d'éthyle]"
58,24,"CCCc1nn(C)c(O)c1Cc1ccc(-c2ccccc2-c2nnn[nH]2)cc1 [Exemple 71, Méthyl-1 n-Propyl-3 hydroxy-5 [(tétrazolyl-5)-2' biphényl-yl-4] méthyl-4 pyrazole]"
66,58,"CCCc1nn(CC(F)(F)F)c(O)c1Cc1ccc(-c2ccccc2-c2nnn[nH]2)cc1 [Exemple 74, (Trifluoro-2,2,2 éthyl)-1 n-Propyl-3 hydroxy-5 [(tétrazolyl-5)-2' biphényl-yl-4] méthyl-4 pyrazole]"
